Values after ≈ are worked out from the molar mass of the structure shown. Read-outs that look alike come from different tables or passages of the source.
Tests used:
E. coli strain ATCC25922 = experiment: MIC, broth microdilution antimicrobial susceptibility test (CLSI); format: cell-based; conditions: Escherichia coli, ATCC25922; E. coli ATCC 25922; growth inhibited by ≥90%, 18 h; read-out: MIC^c: Minimum inhibitory concentration against E. coli
Description: (§1) This example illustrates the evaluation of 2,4,6-trisubstituted pyrimidines 14 for their antimicrobial activities against the Gram positive S. aureus strain ATCC29213 and the Gram negative E. coli strain ATCC25922 by measuring their MIC, which is the lowest concentration of an antimicrobial agent that prevents visible growth of a microorganism in a broth dilution susceptibility test according to the standard method approved by the Clinical and Laboratory Standards Institute (CLSI) guidelines.^21
(§2) Procedure of Antimicrobial susceptibility test: The MIC value of compounds was measured in the antimicrobial susceptibility test using the broth microdilution procedure in accordance with the CLSI guidelines.^21 Cation-adjusted Mueller Hinton broth (CA-MHB) was used for all the S. aureus strains in the assay. Cells in exponential phase of growth were diluted to approximately 5×10^5 cfu/mL. Stock solutions of each compound were freshly dissolved in dimethyl sulfoxide (DMSO). Then, serial dilutions of each compound in CA-MHB medium were added into 96-well microplate. The final percentage of DMSO in the assay was 1%. Control experiments were performed with 1% DMSO instead of the compound solution. After being incubated at 37° C. for 18 h, OD600 value of cells was measured on a microplate reader and the percentage of bacterial cell inhibition with respect to controls was calculated. The MIC value was defined as the lowest compound concentration at which the growth of bacteria was inhibited by ≥90%. Three independent assays were performed for each compound.

[1] = test system: S. aureus strain ATCC29213; experiment: as above; format: cell-based; conditions: for MIC^c/MIC^b: Selectivity index: E. coli ATCC 25922 MIC over S. aureus 29213 MIC; for MIC: Staphylococcus aureus
Description: as §1, §2

[2] = test system: S. aureus ATCC 29247 (ampicillin resistant strain); experiment: MIC against clinically isolated strain 1; format: cell-based; conditions: Staphylococcus aureus, ATCC29247
Procedure: as §2
(§3) Results: Three compounds, namely 14av_amine16, 14dv_amine16 and 14dv_amine06, were selected to be tested against nine in-house clinically isolated bacterial strains including S. aureus ATCC29247, which is an ampicillin resistant strain, S. aureus ATCC BAA-41, ATCC BAA-1717, ATCC BAA-1720, ATCC 43300 which are methicillin resistant strains and four USA300 strains, (#417, #757, #1799 and #2690), which are the predominant strain type of community-associated MRSA strains in the United States.

[3] = test system: S. aureus ATCC BAA-1717 (methicillin resistant); experiment: MIC against clinically isolated strain 2; format: cell-based; conditions: Staphylococcus aureus, ATCCBAA1717
Procedure: as §2, §3

[4] = test system: S. aureus ATCC BAA-1720 (methicillin resistant); experiment: MIC against clinically isolated strain 3; format: cell-based; conditions: Staphylococcus aureus, ATCCBAA1720
Procedure: as §2, §3

[5] = test system: S. aureus ATCC BAA-41 (methicillin resistant); experiment: MIC against clinically isolated strain 4; format: cell-based; conditions: Staphylococcus aureus, ATCCBAA41
Procedure: as §2, §3

[6] = test system: S. aureus ATCC 43300 (methicillin resistant); experiment: MIC against clinically isolated strain 5; format: cell-based; conditions: Staphylococcus aureus, ATCC43300
Procedure: as §2, §3

[7] = test system: USA300 #417 (community-associated MRSA); experiment: MIC against clinically isolated strain 6; format: cell-based, S. aureus; conditions: Staphylococcus aureus
Procedure: as §2, §3

[8] = test system: USA300 #757 (community-associated MRSA); experiment: MIC against clinically isolated strain 7; format: cell-based, S. aureus; conditions: Staphylococcus aureus
Procedure: as §2, §3

[9] = test system: USA300 #1799 (community-associated MRSA); experiment: MIC against clinically isolated strain 8; format: cell-based, S. aureus; conditions: Staphylococcus aureus
Procedure: as §2, §3

[10] = test system: USA300 #2690 (community-associated MRSA); experiment: MIC against clinically isolated strain 9; format: cell-based, S. aureus; conditions: Staphylococcus aureus
Procedure: as §2, §3

[11] = test system: clinically isolated S. aureus strains; experiment: MIC against the nine clinically isolated S. aureus strains; format: cell-based; conditions: Staphylococcus aureus; most of the MRSA strains
Procedure: as §2, with “compound. […]” for “compound.”

[12] = ATCC29213, S. aureus 29213, growth inhibited by ≥90%, 18 h, read-out: MIC^b: Minimum inhibitory concentration against S. aureus
[13] = S. aureus ATCC29213, read-out: MIC against S. aureus

MIC (E. coli strain ATCC25922) | MIC [1, 12] | MIC [1, 13] | MIC [2] | MIC [3] | MIC [4] | MIC [5] | MIC [6] | MIC [7] | MIC [8] | MIC [9] | MIC [10] | MIC [11] | Compound | MIC^c/MIC^b: Selectivity index [1]
> 125 µM | 5 µM (≈ 2.46 µg/mL) | 5 to 8 µM (≈ 2.46 to 3.93 µg/mL) | 5 µM (≈ 2.46 µg/mL) | 5 µM (≈ 2.46 µg/mL) | 10 µM (≈ 4.92 µg/mL) | 10 µM (≈ 4.92 µg/mL) | 10 µM (≈ 4.92 µg/mL) | 10 µM (≈ 4.92 µg/mL) | 10 µM (≈ 4.92 µg/mL) | 10 µM (≈ 4.92 µg/mL) | 10 µM (≈ 4.92 µg/mL) |  | CC(C)c1ccc(CN2CCCN(CCc3cc(-c4ccccc4)nc(-c4ccncc4)n3)CC2)cc1 [Compound 14dv_amine06, 1-(4-isopropylbenzyl)-4-(2-(6-phenyl-2-(pyridin-4-yl)pyrimidin-4-yl)ethyl)-1,4-diazepane] | >25
> 125 µM | 5 µM (≈ 2.59 µg/mL) | 5 to 8 µM (≈ 2.59 to 4.14 µg/mL) | 5 µM (≈ 2.59 µg/mL) | 5 µM (≈ 2.59 µg/mL) | 10 µM (≈ 5.18 µg/mL) | 10 µM (≈ 5.18 µg/mL) | 10 µM (≈ 5.18 µg/mL) | 10 µM (≈ 5.18 µg/mL) | 10 µM (≈ 5.18 µg/mL) | 10 µM (≈ 5.18 µg/mL) | 10 µM (≈ 5.18 µg/mL) |  | FC(F)(F)c1ccc(CN2CCCN(CCc3cc(-c4ccccc4)nc(-c4ccncc4)n3)CC2)cc1 [Compound 14dv_amine16, 1-(2-(6-phenyl-2-(pyridin-4-yl)pyrimidin-4-yl)ethyl)-4-(4-(trifluoromethyl)benzyl)-1,4-diazepane] | >25
 |  |  |  | > 30 µM | > 30 µM | > 30 µM | > 30 µM | > 30 µM | 30 µM (≈ 11.4 µg/mL) | 30 µM (≈ 11.4 µg/mL) | 15 µM (≈ 5.71 µg/mL) | > 30 µM | COc1cccc(OC)c1C(=O)N[C@@H]1C(=O)N2[C@@H]1SC(C)(C)[C@@H]2C(=O)O [Methicillin, reference compound] | 

— patent US9951039B2, “Pyrimidines for treatment of bacterial infections” (The Hong Kong Polytechnic University, priority 2016, dated 2018)
